The values below come from ChEMBL document CHEMBL1782049, “The synthesis and evaluation of a novel class of (E)-3-(1-cyclohexyl-1H-pyrazol-3-yl)-2-methylacrylic acid hepatitis C virus polymerase NS5B inhibitors” (Bioorg Med Chem Lett, 2011).

Broadly, the IC50 is the concentration that gives 50% inhibition. In general, EC50 refers to the concentration needed to bring the measured effect to its halfway point. Low values mean greater potency, high ones weaker potency.

In series [1] the test system is Hepatitis C virus. The experiment in a line: Inhibition of Hepatitis C virus subtype 1b NS5B activity assessed as inhibition of poly(A)n.oligo(dT)12-18-directed incorporation of [3H]-UTP into […] after 45 mins.
Series [2] relates to Hepatitis C virus. The experiment in a line: Antiviral activity against Hepatitis C virus subtype 1b infected in human Huh7 cells by replicon assay. Format: functional, organism-based, Hepacivirus hominis. Conditions: genotype 1b, Huh-7. (Replicon systems follow genome replication, usually without infectious particles.)
For series [3], the system named is Hepatitis C virus. The experiment in a line: Antiviral activity against Hepatitis C virus subtype 1b harboring NS5B P495A mutant infected in human Huh7 cells by replicon assay. Format: functional, organism-based, Hepacivirus hominis. Conditions: genotype 1b, Huh-7.
Series [4] can be described thus: Therapeutic index, ratio of CC50 for human HuH cells to EC50 for Hepatitis C virus subtype 1b. The class given is cell-based. Conditions: read-out: Ratio CC50/EC50.

Turning to `CC(=O)c1ccc(-c2ccc(C(=O)N(C)C)cc2COc2ccc(-c3cc(/C=C(\C)C(=O)O)nn3C3CCCCC3)cc2)s1`, in the series on Hepatitis C virus [1], the IC50 amounted to 2700 nM. As for `C/C(=C\c1cc(-c2ccc(OCc3cc(C(=O)N4CCC(O)CC4)ccc3-c3ccc(Cl)cc3)cc2)n(C2CCCCC2)n1)C(=O)O`, in the series on Hepatitis C virus [1], the IC50 stood at 440 nM. With `C/C(=C\c1cc(-c2ccc(OCc3cc(C(=O)N(C)C)ccc3-c3ccc(Cl)cc3)cc2)n(C2CCCCC2)n1)C(=O)O`, the midpoint of the response in the series with Hepatitis C virus [2], the EC50, lay at 1900 nM. Moreover, in the series on Hepatitis C virus [1], the IC50 came to 460 nM. Consider `CNC(=O)c1ccc(-c2ccc(Cl)cc2)c(COc2ccc(-c3cc(/C=C(\C)C(=O)O)nn3C3CCCCC3)cc2)c1`, for which the 50% inhibitory concentration (IC50) in the series on Hepatitis C virus [1] came out at 380 nM. Consider `CNC(=O)c1ccc(-c2ccc(C#N)cc2)c(COc2ccc(-c3cc(/C=C(\C)C(=O)O)nn3C3CCCCC3)cc2)c1`, for which the IC50 in the series on Hepatitis C virus [1] amounted to 790 nM. With `C/C(=C\c1cc(-c2ccc(OCc3cc(C(=O)N(C)C)ccc3-c3ccc(C#N)cc3)cc2)n(C2CCCCC2)n1)C(=O)O`, in the series on Hepatitis C virus [1], the IC50 was 820 nM. As for `CNC(=O)c1ccc(-c2ccc(Cl)cc2)c(COc2ccc(-c3nc4cc(C(=O)O)ccc4n3C3CCCCC3)cc2)c1`, the EC50 in the series with Hepatitis C virus [2] amounted to 300 nM. Also, the IC50 in the series with Hepatitis C virus [1] stood at 640 nM.

Regarding `CNC(=O)c1ccc(-c2ccc(Cl)cc2)c(COc2ccc(-n3nc(/C=C(\C)C(=O)O)cc3C3CCCCC3)cc2)c1`, in the series on Hepatitis C virus [1], the IC50 came to 4030 nM. Regarding `CNC(=O)c1ccc(-c2ccc(Cl)cc2)c(COc2ccc(-c3nc(/C=C(\C)C(=O)O)cn3C3CCCCC3)cc2)c1`, in the series with Hepatitis C virus [1], the IC50 amounted to 1620 nM. Regarding `C/C(=C\c1nn(C2CCCCC2)c(-c2ccc(OCc3cc(C(=O)N4CCC(O)CC4)ccc3-c3ccc(Cl)cc3)cc2)c1Br)C(=O)O`, the EC50 in the series with Hepatitis C virus [2] amounted to 700 nM. The IC50 in the series on Hepatitis C virus [1] worked out at 650 nM. As for `CNC(=O)c1ccc(-c2ccc(C(C)=O)s2)c(COc2ccc(-c3cc(/C=C(\C)C(=O)O)nn3C3CCCCC3)cc2)c1`, the IC50 with Hepatitis C virus [1] was 2290 nM. Consider `C/C(=C\c1cc(-c2ccc(OCc3cc(C(=O)NCCO)ccc3-c3ccc(Cl)cc3)cc2)n(C2CCCCC2)n1)C(=O)O`, for which the IC50 with Hepatitis C virus [1] is 1030 nM.

Take `C/C(=C\c1cc(-c2ccc(OCc3cc(C(=O)N4CCC(O)CC4)ccc3-c3ccc(C#N)cc3)cc2)n(C2CCCCC2)n1)C(=O)O`: the EC50 in the series on Hepatitis C virus [2] amounted to 400 nM; in the series with Hepatitis C virus [3], 4000 nM. In the series with Hepatitis C virus [1], the half-inhibitory concentration (IC50) was 340 nM. For the same compound, in series [4], the selectivity ratio is greater than 60. Take `CC(=O)c1ccc(-c2ccc(C(=O)N3CCOCC3)cc2COc2ccc(-c3cc(/C=C(\C)C(=O)O)nn3C3CCCCC3)cc2)s1`: the IC50 in the series with Hepatitis C virus [1] was 5200 nM.
